Measurements reported in ChEMBL document CHEMBL1201862, “PubChem BioAssay data set” (2004).
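A five-concentration, 48-hour dose response in 96-well plates underlies each endpoint, interpolated linearly between surrounding concentrations. The concentration for 50% growth inhibition is given as GI50.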 Calls of active or inactive are those of the source. No stated cut-off is given here; in the data, active = GI50 up to about 1.1 µM and inactive = higher.

Tests used:
Assay in all cases: inhibition of tumour cell growth, NCI panel, 48 h
[1] = test system: SF-268
[2] = test system: COLO 205
[3] = test system: NCI-H460
[4] = test system: LOX IMVI
[5] = test system: MDA-MB-231
[6] = test system: M14
[7] = test system: CCRF-CEM
[8] = test system: EKVX
[9] = test system: UACC-257
[10] = test system: UO-31
[11] = test system: NCI-H522
[12] = test system: KM12
[13] = test system: SK-OV-3
[14] = test system: OVCAR-4
[15] = test system: A498
[16] = test system: Malme-3M
[17] = test system: SN12C
[18] = test system: SK-MEL-5
[19] = test system: DU-145
[20] = test system: SW-620

| Structure (SMILES) | GI50 [1] | GI50 [2] | GI50 [3] | GI50 [4] | GI50 [5] | GI50 [6] | GI50 [7] | GI50 [8] | GI50 [9] | GI50 [10] | GI50 [11] | GI50 [12] | GI50 [13] | GI50 [14] | GI50 [15] | GI50 [16] | GI50 [17] | GI50 [18] | GI50 [19] | GI50 [20] |
| --- | --- | --- | --- | --- | --- | --- | --- | --- | --- | --- | --- | --- | --- | --- | --- | --- | --- | --- | --- | --- |
| COC(=O)C1=C(OC(=O)/C(=C/c2ccc(Cl)cc2)c2ccc(Cl)cc2)C(C(=O)OC)[C@@]2(O)[C@@H](C(=O)OC)[C@H](C)C[C@@H]1[C@@H]2C(=O)OC (stereo not given in full) | 35 µM (inactive) | > 76.4 µM (inactive) | 14.3 µM (inactive) | > 100 µM (inactive) | > 71.9 µM (inactive) | > 100 µM (inactive) | > 37.2 µM (inactive) | 10.6 µM (inactive) | > 83.6 µM (inactive) | > 100 µM (inactive) | 3.87 µM (inactive) | 11 µM (inactive) | > 100 µM (inactive) | 50.8 µM (inactive) | > 100 µM (inactive) | 29 µM (inactive) | > 100 µM (inactive) | > 100 µM (inactive) | > 100 µM (inactive) | 78.2 µM (inactive) |
| C/C(=N\N)C(CN1CCCCC1)C(c1ccccc1)c1c(O)c2ccccc2oc1=O (stereo not given) | > 100 µM (inactive) | > 100 µM (inactive) | > 100 µM (inactive) | 25.7 µM (inactive) | > 100 µM (inactive) | > 100 µM (inactive) | > 100 µM (inactive) | > 100 µM (inactive) | > 100 µM (inactive) | > 67.3 µM (inactive) | > 100 µM (inactive) | > 100 µM (inactive) | > 100 µM (inactive) | > 100 µM (inactive) | > 100 µM (inactive) | > 87.7 µM (inactive) | > 100 µM (inactive) | > 100 µM (inactive) | > 100 µM (inactive) | > 100 µM (inactive) |
| O=c1nc(N2CCN(c3ccccc3)CC2)ccn1C1OC(CO)C(O)C1O (stereo not given) | > 100 µM (inactive) | 97.3 µM (inactive) | > 100 µM (inactive) | 94.2 µM (inactive) | > 100 µM (inactive) | 37.5 µM (inactive) | 35.6 µM (inactive) | 61.2 µM (inactive) | 45.1 µM (inactive) | > 100 µM (inactive) | 52.8 µM (inactive) | 38.1 µM (inactive) | > 100 µM (inactive) | 27.1 µM (inactive) | > 100 µM (inactive) | > 100 µM (inactive) | > 100 µM (inactive) | 42.6 µM (inactive) | > 100 µM (inactive) | 82 µM (inactive) |
| CCOC(=O)N/N=C(/N)c1cccc([N+](=O)[O-])c1 | > 100 µM (inactive) | > 100 µM (inactive) | > 100 µM (inactive) | > 100 µM (inactive) | > 100 µM (inactive) | > 100 µM (inactive) | > 100 µM (inactive) | > 100 µM (inactive) | > 100 µM (inactive) | > 100 µM (inactive) | > 100 µM (inactive) | > 100 µM (inactive) | > 100 µM (inactive) | > 100 µM (inactive) | > 100 µM (inactive) | > 100 µM (inactive) | > 100 µM (inactive) | > 100 µM (inactive) | > 100 µM (inactive) | > 100 µM (inactive) |
| O=C(Oc1ccccn1)c1cc2cc(CCl)ccc2oc1=O | 20.3 µM (inactive) | 51.2 µM (inactive) | 43.7 µM (inactive) | 33.3 µM (inactive) | 19.7 µM (inactive) | > 100 µM (inactive) | 30.4 µM (inactive) | 36.8 µM (inactive) | 77.1 µM (inactive) | 33.7 µM (inactive) | 15.2 µM (inactive) | 66.8 µM (inactive) | > 100 µM (inactive) | 23 µM (inactive) | 70.6 µM (inactive) | 15.7 µM (inactive) | 25.2 µM (inactive) | 51.8 µM (inactive) | 42.8 µM (inactive) | 30.8 µM (inactive) |
| CC(=O)O[C@H]1C[C@H](O[C@H]2[C@@H](O)C[C@H](O[C@H]3[C@@H](O)C[C@H](O[C@H]4CC[C@@]5(C)[C@H](CC[C@@H]6[C@@H]5CC[C@]5(O)[C@@H](C7=CC(=O)OC7)CC[C@]65O)C4)O[C@@H]3C)O[C@@H]2C)O[C@H](C)[C@H]1O[C@@H]1O[C@H](CO)[C@@H](O)[C@H](O)[C@H]1O | 0.358 µM (active) | 0.711 µM (active) | 0.106 µM (active) | 0.271 µM (active) | 2.35 µM (inactive) | 0.841 µM (active) | 0.116 µM (active) | 0.233 µM (active) | 0.597 µM (active) | 0.391 µM (active) | 0.0492 µM (active) | 0.565 µM (active) | 0.555 µM (active) | 0.497 µM (active) | 0.383 µM (active) | 0.403 µM (active) | 0.258 µM (active) | 0.223 µM (active) | 0.243 µM (active) | 0.407 µM (active) |
| NNS(=O)(=O)c1cc(C(=O)O)cc(C(=O)O)c1 | > 100 µM (inactive) | > 100 µM (inactive) | > 100 µM (inactive) | > 100 µM (inactive) | > 100 µM (inactive) | > 100 µM (inactive) | 28.5 µM (inactive) | > 100 µM (inactive) | > 100 µM (inactive) | > 100 µM (inactive) | > 100 µM (inactive) | > 100 µM (inactive) | > 100 µM (inactive) | > 100 µM (inactive) | > 100 µM (inactive) | > 100 µM (inactive) | > 100 µM (inactive) | > 100 µM (inactive) | > 100 µM (inactive) | > 100 µM (inactive) |
| O=C1C=CC(=O)N1c1ccc(I)cc1 | 27 µM (inactive) | 6.18 µM (inactive) | 33.5 µM (inactive) | 19.9 µM (inactive) | 23.6 µM (inactive) | 16.7 µM (inactive) | 3.1 µM (inactive) | 23.3 µM (inactive) | 18 µM (inactive) | 18.9 µM (inactive) | 18.6 µM (inactive) | 21.4 µM (inactive) | 16.5 µM (inactive) | 20.2 µM (inactive) | 20.2 µM (inactive) | 17.9 µM (inactive) | 20.6 µM (inactive) | 18.6 µM (inactive) | 19.2 µM (inactive) | 7.08 µM (inactive) |
